Several values for one entry are separate records, joined by “and”; a condition that tells them apart may be missing. Identical values can stand only once. Like-named read-outs stand apart in the source and are kept apart here.
Test system: senescent IMR90 ER:RAS cells (4-OHT-induced)
Test: Nuclei count (Hoechst, high content imaging) senolytic assay, oncogene-induced senescence (OIS) model, senescent cells
Format: cell-based, human
Conditions: for viability at 10 µM / viability at 4.677 µM / viability at 2.188 µM / viability at 1 µM / viability at 0.4677 µM / viability at 0.2188 µM / viability at 0.1 µM / viability at 0.04677 µM / viability at 0.02188 µM / viability at 0.01 µM: Homo sapiens
Text: To test for senolytic activity, we compared the effect of each compound on the total cell number (automated high content image-based analysis of total number of nuclei per well) in non-senescent and senescent IMR90 ER:RAS cultures treated with the top hits from the computational screen (Figs. 2e and 3a–d and Supplementary Fig. 4a–c). The drop in cell number compared to untreated controls is indicated by the nuclei count and reflects cell death[13],[15]. As positive control, we employed ouabain, a cardiac glycoside with well characterised senolytic activity.
We performed experimental validation of the compounds with z-score > 8 (Fig. 2e). […] We employed two cellular models of senescence: one of OIS and a second one of TIS. For the OIS case, we utilised IMR90 ER:RAS cells with 4-OHT at 100 nM. […] For the TIS model, we used A549 cells with etoposide at 100 μM. The exposure of the cells to etoposide lasted 48 h, after which period the cells were cultivated for a further three days with normal media.
IMR90 (CCL-186) human foetal lung fibroblasts and A549 (CCL-185) human lung adenocarcinoma cells were obtained from the American Type Culture Collection (ATCC, Manassas, VA). The cell lines were confirmed to be mycoplasma negative (Lonza MycoAlert, cat #LT07-118). IMR90 ER:RAS is a derivative of IMR90 cells expressing a switchable version of oncogenic H-Ras[84]. IMR90 ER:RAS and A549 cells were maintained in Dulbecco’s Modified Eagle Medium (DMEM, ThermoFisher) supplemented with foetal bovine serum (10%), L-glutamine (2 mM, ThermoFisher), and antibiotic-antimycotic solution (1%, ThermoFisher) and incubated under standard tissue culture conditions (37 °C and 5% CO2). For induction of the senescent phenotype, IMR90-ER:RAS cells were cultured in hydroxytamoxifen (4-OHT) (Sigma) added media at 100 nM final concentration. IMR90 were kept in culture for over 27 passages for replicative senescence. Cells were tested for mycoplasma on a regular basis.
Cells were seeded (50 μL per well) into 384-well plates (IMR90 ER:RAS cells in Nunc Optical Bottom Polybase Microplates [#142761, Thermo Scientific, Rochester, NY] and A549 cells in CELLSTAR Cell Culture Microplates [#781091, Greiner Bio-One, Kremsmünster, Austria]). Cells were incubated under standard tissue culture conditions for 24 h before the addition of compounds. Passage 14 IMR90 ER:RAS cells were seeded at 1300 cells per well in the control condition, and at 1600 cells per well in the senescent case. Passage 34 A549 cells were seeded at 7000 cells per well in the control condition, and at 10,000 cells per well in the senescent case.
Dose response plates were prepared with a DMSO control and a 10-point […] concentration range, and added to the compounds using a D300e digital dispenser (Tecan Trading AG, Switzerland) at a final concentration of between 10 μM and 10 nM. Every screened condition was carried out in triplicate. After 72 h of incubation with exposure to the compounds, cells were fixed by the addition of an equal volume of formaldehyde (8%, 50 μL; #BP531-500, Fisher Bioreagents, Fisher Scientific, Loughborough, Leicestershire) to the existing media, incubated at room temperature (30 min), and washed three times in phosphate-buffered saline (PBS). Cells were then permeabilised in Triton-X100 (0.1%, 50 μL) and incubated at room temperature (30 min) followed by three more washes with PBS.
Cells were stained with Hoechst 33342 for nuclei count (excitation/emission wavelength at 387/447 […], DAPI channel, original concentration at 10 mg/ml, final concentration at 2 μg/ml; H1399, Molecular Probes, Eugene, OR). The staining solution was prepared in bovine serum albumin solution (10%). The staining solution was added to each well (30 μL) and incubated in the dark at room temperature (30 min), followed by three washes with PBS and no final aspiration. Plates were foil sealed.

[1] = IMR-90, 72 h, Senescent, log (dose) [M] -5, 72 h, mean n=3 (Fig 3C), read-out: Mean % Cell Survival
[2] = IMR-90, 72 h, Senescent, log (dose) [M] -5.33, 72 h, mean n=3 (Fig 3C), read-out: Mean % Cell Survival
[3] = IMR-90, 72 h, Senescent, log (dose) [M] -5.66, 72 h, mean n=3 (Fig 3C), read-out: Mean % Cell Survival
[4] = IMR-90, 72 h, Senescent, log (dose) [M] -6, 72 h, mean n=3 (Fig 3C), read-out: Mean % Cell Survival
[5] = IMR-90, 72 h, Senescent, log (dose) [M] -6.33, 72 h, mean n=3 (Fig 3C), read-out: Mean % Cell Survival
[6] = IMR-90, 72 h, Senescent, log (dose) [M] -6.66, 72 h, mean n=3 (Fig 3C), read-out: Mean % Cell Survival
[7] = IMR-90, 72 h, Senescent, log (dose) [M] -7, 72 h, mean n=3 (Fig 3C), read-out: Mean % Cell Survival
[8] = IMR-90, 72 h, Senescent, log (dose) [M] -7.33, 72 h, mean n=3 (Fig 3C), read-out: Mean % Cell Survival
[9] = IMR-90, 72 h, Senescent, log (dose) [M] -7.66, 72 h, mean n=3 (Fig 3C), read-out: Mean % Cell Survival
[10] = IMR-90, 72 h, Senescent, log (dose) [M] -8, 72 h, mean n=3 (Fig 3C), read-out: Mean % Cell Survival
[11] = IMR-90, Senescent cells, log (dose) [M] -5.33, individual replicates, SUP FIG 4C, read-out: % Cell Survival
[12] = IMR-90, Senescent cells, log (dose) [M] -6.33, individual replicates, SUP FIG 4C, read-out: % Cell Survival
[13] = IMR-90, Senescent cells, log (dose) [M] -7.66, individual replicates, SUP FIG 4C, read-out: % Cell Survival
[14] = IMR-90, Senescent cells, log (dose) [M] -8, individual replicates, SUP FIG 4C, read-out: % Cell Survival
[15] = IMR-90, Senescent, log (dose) [M] -8, read-out: % Cell Survival

C=Cc1c(C)c2cc3nc(cc4[nH]c(cc5nc(cc1[nH]2)C(C)=C5CCC(=O)O)c(CCC(=O)OC)c4C)[C@@]1(C)C3=CC=C(C(=O)OC)[C@H]1C(=O)OC [Verteporfin, verteporfin, reference compound]
% Cell Survival (Senescent cells, log (dose) [M] -5, individual replicates, SUP FIG 4C): 93.9435% and 91.1111% and 111.269%
% Cell Survival (Senescent cells, log (dose) [M] -5.33, individual replicates, SUP FIG 4C): 81.5612% and 99.085% and 87.8238%
% Cell Survival (Senescent cells, log (dose) [M] -5.66, individual replicates, SUP FIG 4C): 114.536% and 91.2418% and 98.8342%
% Cell Survival (Senescent cells, log (dose) [M] -6, individual replicates, SUP FIG 4C): 68.7752% and 100.915% and 109.974%
% Cell Survival (Senescent cells, log (dose) [M] -6.33, individual replicates, SUP FIG 4C): 85.8681% and 55.5556% and 108.549%
% Cell Survival (Senescent cells, log (dose) [M] -6.66, individual replicates, SUP FIG 4C): 84.253% and 107.32% and 95.2073%
% Cell Survival (Senescent cells, log (dose) [M] -7, individual replicates, SUP FIG 4C): 86.541% and 87.8431% and 90.544%
% Cell Survival (Senescent cells, log (dose) [M] -7.33, individual replicates, SUP FIG 4C): 95.5585% and 120.915% and 93.9119%
% Cell Survival (Senescent cells, log (dose) [M] -7.66, individual replicates, SUP FIG 4C): 98.3849% and 123.268% and 87.8238%
% Cell Survival (Senescent cells, log (dose) [M] -8, individual replicates, SUP FIG 4C): 86.541% and 113.464% and 76.6839%
Mean % Cell Survival (Senescent, log (dose) [M] -5, 72 h, mean n=3 (Fig 3C)): 98.7747%
Mean % Cell Survival (Senescent, log (dose) [M] -5.33, 72 h, mean n=3 (Fig 3C)): 89.49%
Mean % Cell Survival (Senescent, log (dose) [M] -5.66, 72 h, mean n=3 (Fig 3C)): 101.537%
Mean % Cell Survival (Senescent, log (dose) [M] -6, 72 h, mean n=3 (Fig 3C)): 93.2215%
Mean % Cell Survival (Senescent, log (dose) [M] -6.33, 72 h, mean n=3 (Fig 3C)): 83.3243%
Mean % Cell Survival (Senescent, log (dose) [M] -6.66, 72 h, mean n=3 (Fig 3C)): 95.5935%
Mean % Cell Survival (Senescent, log (dose) [M] -7, 72 h, mean n=3 (Fig 3C)): 88.3094%
Mean % Cell Survival (Senescent, log (dose) [M] -7.33, 72 h, mean n=3 (Fig 3C)): 103.462%
Mean % Cell Survival (Senescent, log (dose) [M] -7.66, 72 h, mean n=3 (Fig 3C)): 103.159%
Mean % Cell Survival (Senescent, log (dose) [M] -8, 72 h, mean n=3 (Fig 3C)): 92.2297%
% Cell Survival (Senescent, log (dose) [M] -5): 113.825% and 103.66% and 137.931%
% Cell Survival (Senescent, log (dose) [M] -5.33): 79.9635% and 100.131% and 115.557%
% Cell Survival (Senescent, log (dose) [M] -5.66): 102.923% and 109.085% and 134.403%
% Cell Survival (Senescent, log (dose) [M] -6): 99.1474% and 91.7647% and 157.418%
% Cell Survival (Senescent, log (dose) [M] -6.33): 98.8429% and 106.993% and 136.808%
% Cell Survival (Senescent, log (dose) [M] -6.66): 92.57% and 116.536% and 113.873%
% Cell Survival (Senescent, log (dose) [M] -7): 103.898% and 73.5294% and 123.657%
% Cell Survival (Senescent, log (dose) [M] -7.33): 62.363% and 86.2092% and 118.605%
% Cell Survival (Senescent, log (dose) [M] -7.66): 100.061% and 91.4379% and 129.27%
% Cell Survival (Senescent, log (dose) [M] -8): 96.6504% and 87.3856% and 116.84%

Cc1c(-c2c(F)cc(C(N)=O)c3[nH]c4c(c23)CC[C@H](C(C)(C)O)C4)cccc1-n1c(=O)c2cccc(F)c2n(C)c1=O [BMS 986142]
viability at 10 µM [1]: 97.6%
viability at 4.677 µM [2]: 143%
viability at 2.188 µM [3]: 96.7%
viability at 1 µM [4]: 102%
viability at 0.4677 µM [5]: 101%
viability at 0.2188 µM [6]: 100%
viability at 0.1 µM [7]: 98.6%
viability at 0.04677 µM [8]: 109%
viability at 0.02188 µM [9]: 95.3%
viability at 0.01 µM [10]: 97.5%
viability at 4.677 µM [11]: 133%
viability at 0.4677 µM [12]: 103%
viability at 0.2188 µM (IMR-90, Senescent cells, log (dose) [M] -6.66, individual replicates, SUP FIG 4C, read-out: % Cell Survival): 105%
viability at 0.1 µM (IMR-90, Senescent cells, log (dose) [M] -7, individual replicates, SUP FIG 4C, read-out: % Cell Survival): 91.6%
viability at 0.02188 µM [13]: 94.3%
viability at 0.01 µM [14]: 90.3%
viability at 0.01 µM [15]: 111%

O=c1c(O)c(-c2ccc(O)cc2)oc2c(O)c(O)cc(O)c12 [Herbacetin, herbacetin]
viability at 10 µM [1]: 103%
viability at 4.677 µM [2]: 98.4%
viability at 2.188 µM [3]: 76.1%
viability at 1 µM [4]: 71.6%
viability at 0.4677 µM [5]: 91.9%
viability at 0.2188 µM [6]: 84.1%
viability at 0.1 µM [7]: 95.7%
viability at 0.04677 µM [8]: 90.5%
viability at 0.02188 µM [9]: 97.8%
viability at 0.01 µM [10]: 97.5%
viability at 0.4677 µM [12]: 94.7%
viability at 0.04677 µM (IMR-90, Senescent cells, log (dose) [M] -7.33, individual replicates, SUP FIG 4C, read-out: % Cell Survival): 85.5%
viability at 0.02188 µM [13]: 100%
viability at 0.01 µM [14]: 91.5%
viability at 0.02188 µM (IMR-90, Senescent, log (dose) [M] -7.66, read-out: % Cell Survival): 104%
senolytic activity (in words) (experimental screen, OIS IMR90 ER:RAS): inactive

O=c1cc(-c2ccc(O)cc2)oc2cc(O)c(O)c(O)c12 [Scutellarein, scutellarein]
viability at 10 µM [1]: 124%
viability at 4.677 µM [2]: 124%
viability at 2.188 µM [3]: 132%
viability at 1 µM [4]: 124%
viability at 0.4677 µM [5]: 137%
viability at 0.2188 µM [6]: 132%
viability at 0.1 µM [7]: 115%
viability at 0.04677 µM [8]: 122%
viability at 0.02188 µM [9]: 106%
viability at 0.01 µM [10]: 100%
viability at 4.677 µM [11]: 129%
viability at 0.2188 µM (IMR-90, Senescent, log (dose) [M] -6.66, read-out: % Cell Survival): 97.8%
viability at 0.04677 µM (IMR-90, Senescent, log (dose) [M] -7.33, read-out: % Cell Survival): 91.2%
viability at 0.01 µM [15]: 100%

From article PMC10257182, “Discovery of senolytics using machine learning” (Nature Communications, 2023)
